Reference: patent publication US20090306132A1, “USE OF DERIVATIVES OF NAPHTHALENESULPHONIC OR QUINOLINESULPHONIC ACID IN THE TREATMENT OF VASOPROLIFERATIVE OCULAR DISEASES” (ITALFARMACO, S.A., priority 2006, published 2009)

Tested on: hypoxia-induced hypervascularization of the retina
Test: Inhibition of hypoxia-induced vascularization in a mouse model of retinopathy of prematurity (retinopathy score)
Type: in vivo, C57BL/6J mice
Method: A total of thirty C57BL/6J mice were used in a model of retinopathy of prematurity. Seven days after birth, the mice (young) were transferred together with their mothers to a high-oxygen atmosphere (75%) obtained using a mixture of oxygen and air. After 5 days, the animals were transferred to a normal atmosphere. The relative hypoxia produced leads to the release of growth factors which, in turn, cause hypervascularization of the retina. 14-18 hours thereafter, an intravitreous injection of 2 μl of a sterile saline solution of sodium 5-amino-2-naphthalene sulfonate (25 mg/ml) into an eye was performed, and another injection of an equivalent volume of saline solution was performed in the contralateral eye.
Five days after the return to normal atmosphere, the mice were put down by means of an intracardiac injection of dextrane marked with fluorescein (50 mg/ml), the nuclei were removed from both eyes and were fixed for 2 to 6 hours in formaldehyde (4%) at room temperature.
Subsequently, the retina was cut and mounted for observation by fluorescent microscopy, with the vasculature of the retina being assessed. Given that the retina occupies a circular area, in order to perform the assessment, 12 equal radial segments are considered. For the assessment of the central vascularization, the retina is divided into three concentric circles defining three zones: the interior zone around the optic disc, the middle and the exterior zone.
The retinopathy is quantified using a system of multiple assessment in which various morphological parameters associated with retinopathy are assessed: • Presence of a “crest” in each radial segment. One point for each radial segment with the presence of crests. Scoring from 0 to 12. • Presumed extraretinal vascularization, indicated by the presence of groupings of “crest-like” structures. One point for each radial segment with groupings. Scoring from 0 to 12. • Size of the central avascular zone. Scoring from 0 to 3, with 0 meaning an occupation of less than 50% of the interior zone; 1 an occupation of less than 25% of the sum of the interior and middle zone; 2 an occupation of between 25-50% of said sum and 3 an occupation of greater than 50% of same. • Tortuosity of the vessels, measured as a percentage of tortuous vessels with respect to the total. The scoring ranges from 0 to 3, with 0 meaning no tortuosity, 1 if less than ⅓ of the total are tortuous, 2 if between ⅓ and ⅔ are tortuous, and 3 if more than ⅔ are tortuous.
For each eye, a global assessment was obtained consisting of the sum of the points obtained for each parameter.
The statistical analysis of the data was performed subsequently using a Wilcoxon's test.

[1] = intravitreous injection of 2 μl of 25 mg/ml in saline, five days after return to normal atmosphere, N 30

Compound: Nc1cccc2cc(S(=O)(=O)[O-])ccc12.[Na+] [ACTIVE, sodium 5-amino-2-naphthalene sulfonate]
- Effect seen in histological sections of treated eye versus contralateral placebo eye (in words) (histological sections, FIG. 2): antiangiogenic effect
- Global retinopathy assessment (sum of the points obtained for each parameter), Median (intravitreous injection of 2 μl of 25 mg/ml in saline into one eye, saline in contralateral eye, assessed five days after return to normal atmosphere, N 30, p=0.017 vs placebo (Wilcoxon)): 10.5
- Global retinopathy assessment (sum of the points obtained for each parameter), Maximum [1]: 16
- Global retinopathy assessment (sum of the points obtained for each parameter), Minimum [1]: 3
- Effect on neovascularization induced by hypoxia of the retina (in words) (score compared to placebo, FIG. 1): inhibitory effect
